These results are taken from ChEMBL document CHEMBL1201862, “PubChem BioAssay data set” (2004).

Activity calls are given as the source filed them.

Assay [1] deals with T1, G-protein coupled receptor 35 (Homo sapiens, UniProt Q9HC97). Nature of the assay: SAR analysis of Agonists of the GPR35 Receptor using an Image-Based Assay - Set 2. [Related pubchem assays (depositor defined):AID2013, AID2026]. The format is functional.
Assay [2] addresses T2, G-protein coupled receptor 55 (Homo sapiens, UniProt Q9Y2T6). Nature of the assay: GPR55 antagonists blocking LPI-driven arrestin recruitment, primary screen, imaging, U2OS, beta-arrestin-GFP, LPI agonist (AID 2013).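 Note: antagonist potency measured as reduced agonist-driven arrestin aggregation.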 The assay is classed as functional. For orientation: Activated receptors often draw arrestin, which recruitment assays turn into a signal.
Assay [3] has as its target T1, G-protein coupled receptor 35. Nature of the assay: SAR analysis of Antagonists of the GPR35 Receptor using an Image-Based Assay - Set 3. [Related pubchem assays (depositor defined):AID2013, AID2026]. The format is functional.
Assay [4] concerns the target T2, G-protein coupled receptor 55. The assay is described as follows: GPR55 antagonist potency of analogs, SAR follow-up, imaging, U2OS, beta-arrestin-GFP, LPI agonist, set 2 (AID 2820). The assay is classed as functional.
The target in assay [5] is T3, Cannabinoid receptor 2 (Homo sapiens, UniProt P34972). Nature of the assay: SAR analysis of antagonists of the Cannabinoid Receptor 2 using an Image-Based Assay. [Related pubchem assays (depositor defined):AID2013, AID2026]. The assay is classed as functional.
T3 sequence (P34972 whole entry): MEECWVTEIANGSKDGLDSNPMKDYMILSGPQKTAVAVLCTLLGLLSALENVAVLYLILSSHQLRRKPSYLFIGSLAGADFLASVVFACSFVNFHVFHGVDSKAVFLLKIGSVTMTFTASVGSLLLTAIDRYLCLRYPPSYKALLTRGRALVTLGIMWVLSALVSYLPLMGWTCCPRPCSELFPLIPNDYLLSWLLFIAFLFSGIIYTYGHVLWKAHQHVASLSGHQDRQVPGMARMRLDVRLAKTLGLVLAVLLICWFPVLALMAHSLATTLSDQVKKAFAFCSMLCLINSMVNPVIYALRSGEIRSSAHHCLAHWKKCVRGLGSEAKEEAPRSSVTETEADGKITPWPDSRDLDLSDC
Assay [6] deals with T3, Cannabinoid receptor 2. Nature of the assay: SAR analysis of agonists of the Cannabinoid Receptor 2 using an Image-Based Assay. [Related pubchem assays (depositor defined):AID2013, AID2026]. The format is functional.
The target in assay [7] is T4, Cannabinoid receptor 1 (Homo sapiens, UniProt P21554). Nature of the assay: SAR analysis of antagonists of the Cannabinoid Receptor 1 using an Image-Based Assay - Set 2. [Related pubchem assays (depositor defined):AID2013, AID2026]. The assay is classed as functional.
T4 sequence (P21554 whole entry): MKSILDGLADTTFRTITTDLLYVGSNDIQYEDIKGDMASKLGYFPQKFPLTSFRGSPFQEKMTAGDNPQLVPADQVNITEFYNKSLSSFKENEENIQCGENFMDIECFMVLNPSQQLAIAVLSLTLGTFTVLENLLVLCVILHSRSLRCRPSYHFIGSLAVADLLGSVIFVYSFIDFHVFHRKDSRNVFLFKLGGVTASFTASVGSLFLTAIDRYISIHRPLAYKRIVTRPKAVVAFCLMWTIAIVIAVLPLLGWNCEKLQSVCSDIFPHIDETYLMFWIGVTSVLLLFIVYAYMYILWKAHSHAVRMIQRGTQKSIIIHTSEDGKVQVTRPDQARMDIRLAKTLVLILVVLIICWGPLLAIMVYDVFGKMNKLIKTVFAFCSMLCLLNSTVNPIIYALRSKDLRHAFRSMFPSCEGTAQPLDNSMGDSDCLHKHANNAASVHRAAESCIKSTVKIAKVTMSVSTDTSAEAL
Assay [8] has as its target T4, Cannabinoid receptor 1. Nature of the assay: SAR analysis of agonists of the Cannabinoid Receptor 1 using an Image-Based Assay - Set 2. [Related pubchem assays (depositor defined):AID2013, AID2026]. The assay is classed as functional.
The target in assay [9] is T2, G-protein coupled receptor 55. The assay is described as follows: GPR55 antagonists, SAR follow-up, counter-screen for GPR35 antagonist project, imaging, image-based (AID 2397). The assay is classed as functional. Background: The purpose of a counterscreen is to sort out artefacts and off-target activity.
The target of assay [10] is Intestinal-type alkaline phosphatase (Homo sapiens, UniProt P09923). Nature of the assay: activation of human intestinal alkaline phosphatase – biochemical, dose response (AID 488873). The format is functional.
Chain of Intestinal-type alkaline phosphatase (Homo sapiens, UniProt P09923) (P09923 whole entry): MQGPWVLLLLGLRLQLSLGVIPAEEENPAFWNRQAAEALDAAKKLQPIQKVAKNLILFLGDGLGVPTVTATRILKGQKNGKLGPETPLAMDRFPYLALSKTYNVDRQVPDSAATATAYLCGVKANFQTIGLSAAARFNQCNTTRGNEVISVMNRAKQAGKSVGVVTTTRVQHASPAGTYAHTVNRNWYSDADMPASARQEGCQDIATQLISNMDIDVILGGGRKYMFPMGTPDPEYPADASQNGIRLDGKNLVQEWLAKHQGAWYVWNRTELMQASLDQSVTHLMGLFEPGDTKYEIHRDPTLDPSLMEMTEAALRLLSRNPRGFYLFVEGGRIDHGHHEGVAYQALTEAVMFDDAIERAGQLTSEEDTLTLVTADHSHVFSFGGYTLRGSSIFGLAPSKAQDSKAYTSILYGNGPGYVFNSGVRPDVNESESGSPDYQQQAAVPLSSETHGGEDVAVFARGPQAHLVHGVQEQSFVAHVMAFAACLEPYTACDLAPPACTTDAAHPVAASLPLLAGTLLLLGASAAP
For assay [11], the target named is T5, SUMO-activating enzyme (Homo sapiens, UniProt Q9UBT2). The assay is described as follows: inhibitors of in vitro SUMOylation cascade, primary screen, biochemical, HTRF, uHTS (AID 2006). The assay is classed as protein-complex assay.
T5 sequence (Q9UBE0 whole entry): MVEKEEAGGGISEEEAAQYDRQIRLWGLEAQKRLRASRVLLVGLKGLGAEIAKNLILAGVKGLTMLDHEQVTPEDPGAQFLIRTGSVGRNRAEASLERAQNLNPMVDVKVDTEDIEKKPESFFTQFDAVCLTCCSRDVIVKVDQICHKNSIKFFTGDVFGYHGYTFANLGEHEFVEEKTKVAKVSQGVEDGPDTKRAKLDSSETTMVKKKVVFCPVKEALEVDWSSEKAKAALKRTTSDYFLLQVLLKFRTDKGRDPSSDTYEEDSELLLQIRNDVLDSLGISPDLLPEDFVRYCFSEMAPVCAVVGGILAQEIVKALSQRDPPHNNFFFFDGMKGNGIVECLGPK
T5 sequence (Q9UBT2 whole entry): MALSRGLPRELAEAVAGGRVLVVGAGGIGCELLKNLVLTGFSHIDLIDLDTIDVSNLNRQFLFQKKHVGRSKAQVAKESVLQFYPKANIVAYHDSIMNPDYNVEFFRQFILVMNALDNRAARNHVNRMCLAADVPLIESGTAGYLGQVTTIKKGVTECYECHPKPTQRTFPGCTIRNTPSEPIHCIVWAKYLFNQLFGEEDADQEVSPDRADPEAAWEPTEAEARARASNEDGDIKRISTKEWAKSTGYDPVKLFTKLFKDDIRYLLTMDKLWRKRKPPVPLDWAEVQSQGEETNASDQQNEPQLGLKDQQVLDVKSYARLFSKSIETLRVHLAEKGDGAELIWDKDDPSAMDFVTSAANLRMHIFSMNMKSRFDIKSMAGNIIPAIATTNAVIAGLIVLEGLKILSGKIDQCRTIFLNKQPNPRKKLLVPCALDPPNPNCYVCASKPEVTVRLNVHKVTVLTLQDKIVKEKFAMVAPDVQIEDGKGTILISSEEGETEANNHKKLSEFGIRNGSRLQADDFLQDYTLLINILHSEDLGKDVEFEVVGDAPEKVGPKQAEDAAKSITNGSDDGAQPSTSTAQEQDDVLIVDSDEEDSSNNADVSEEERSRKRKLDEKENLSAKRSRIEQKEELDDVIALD
The target in assay [12] is Eukaryotic translation initiation factor 4H (Homo sapiens, UniProt Q15056). Nature of the assay: human eIF4H binding inhibitors, primary screen, translation initiation inhibitor project, biochemical, uHTS, fluorescence polarization (AID 2012).
Assay [13] addresses T6, Alkaline phosphatase, tissue-nonspecific isozyme (Homo sapiens, UniProt P05186).
T6 sequence (P05186 whole entry): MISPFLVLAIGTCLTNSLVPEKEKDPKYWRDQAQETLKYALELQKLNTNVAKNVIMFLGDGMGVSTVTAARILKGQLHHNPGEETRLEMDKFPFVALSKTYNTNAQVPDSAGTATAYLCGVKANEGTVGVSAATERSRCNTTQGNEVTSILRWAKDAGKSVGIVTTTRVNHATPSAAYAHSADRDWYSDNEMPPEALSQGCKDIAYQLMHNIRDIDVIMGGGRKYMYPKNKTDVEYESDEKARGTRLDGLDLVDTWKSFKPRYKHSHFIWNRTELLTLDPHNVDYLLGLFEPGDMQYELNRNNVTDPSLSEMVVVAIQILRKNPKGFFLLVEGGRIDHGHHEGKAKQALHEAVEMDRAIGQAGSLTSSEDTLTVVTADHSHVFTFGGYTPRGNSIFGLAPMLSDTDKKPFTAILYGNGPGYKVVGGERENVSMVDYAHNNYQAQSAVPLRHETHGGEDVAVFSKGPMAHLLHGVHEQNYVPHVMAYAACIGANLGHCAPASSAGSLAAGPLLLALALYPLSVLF
The assay is described as follows: TNAP enzyme activators, dose response, selectivity assay for mouse IAP activator project, biochemical, TNAP isozyme, mouse IAP uHTS hits (AID 488880). The assay is classed as functional.

The target of assay [14] is Intestinal-type alkaline phosphatase (Mus musculus, UniProt P24822). The assay is described as follows: mouse intestinal alkaline phosphatase activators, dose response, biochemical, luminescence, uHTS hits (AID 488783). The format is functional.
Chain of Intestinal-type alkaline phosphatase (Mus musculus, UniProt P24822) (P24822 whole entry): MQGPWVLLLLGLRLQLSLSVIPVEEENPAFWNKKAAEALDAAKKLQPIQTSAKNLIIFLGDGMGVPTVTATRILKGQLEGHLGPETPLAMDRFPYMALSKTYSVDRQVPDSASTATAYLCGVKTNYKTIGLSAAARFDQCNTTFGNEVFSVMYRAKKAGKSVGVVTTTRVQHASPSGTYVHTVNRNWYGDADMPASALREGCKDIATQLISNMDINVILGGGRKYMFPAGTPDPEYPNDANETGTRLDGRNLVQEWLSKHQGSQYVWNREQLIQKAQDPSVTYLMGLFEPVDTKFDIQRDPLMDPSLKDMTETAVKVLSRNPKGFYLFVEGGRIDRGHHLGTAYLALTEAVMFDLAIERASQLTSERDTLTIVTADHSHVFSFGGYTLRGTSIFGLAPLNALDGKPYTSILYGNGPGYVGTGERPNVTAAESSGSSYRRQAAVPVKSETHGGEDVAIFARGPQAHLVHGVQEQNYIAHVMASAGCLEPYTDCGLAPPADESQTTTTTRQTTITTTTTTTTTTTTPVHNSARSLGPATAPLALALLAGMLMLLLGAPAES
Assay [15] deals with T5, SUMO-activating enzyme. Nature of the assay: SUMOylation inhibitor hit validation, confirmation, SUMOylation inhibitor project, biochemical, AlphaScreen (AID 2018). The format is functional. (In general: Alpha assays give light when donor and acceptor beads are brought close together.)
In assay [16] the target is Polyadenylate-binding protein 1 (Homo sapiens, UniProt P11940). Nature of the assay: PABP poly(A) RNA binding inhibitors, primary screen, biochemical, fluorescence polarization, uHTS (AID 2014).
Chain of Polyadenylate-binding protein 1 (P11940 whole entry): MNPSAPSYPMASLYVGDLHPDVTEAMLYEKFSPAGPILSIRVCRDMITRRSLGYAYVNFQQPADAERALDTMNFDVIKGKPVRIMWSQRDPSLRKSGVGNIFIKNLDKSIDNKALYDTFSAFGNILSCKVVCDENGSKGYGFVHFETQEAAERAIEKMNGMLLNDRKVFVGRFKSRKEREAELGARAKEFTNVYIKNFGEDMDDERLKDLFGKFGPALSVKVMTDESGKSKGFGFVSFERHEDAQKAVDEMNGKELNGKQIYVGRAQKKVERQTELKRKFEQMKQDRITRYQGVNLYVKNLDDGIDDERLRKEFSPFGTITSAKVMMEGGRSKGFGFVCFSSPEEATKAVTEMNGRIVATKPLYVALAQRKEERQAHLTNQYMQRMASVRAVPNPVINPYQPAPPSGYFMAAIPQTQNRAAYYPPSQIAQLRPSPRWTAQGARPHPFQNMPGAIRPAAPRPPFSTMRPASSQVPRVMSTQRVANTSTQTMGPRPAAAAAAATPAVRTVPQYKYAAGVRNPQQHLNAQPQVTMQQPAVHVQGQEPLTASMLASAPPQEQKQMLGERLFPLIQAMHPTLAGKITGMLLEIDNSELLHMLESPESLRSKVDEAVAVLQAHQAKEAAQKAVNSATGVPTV

A word on the EC50: it is the concentration giving half of the maximal effect. As usually defined, the IC50 is the concentration that gives 50% inhibition.

T2 sequence (Q9Y2T6 whole entry): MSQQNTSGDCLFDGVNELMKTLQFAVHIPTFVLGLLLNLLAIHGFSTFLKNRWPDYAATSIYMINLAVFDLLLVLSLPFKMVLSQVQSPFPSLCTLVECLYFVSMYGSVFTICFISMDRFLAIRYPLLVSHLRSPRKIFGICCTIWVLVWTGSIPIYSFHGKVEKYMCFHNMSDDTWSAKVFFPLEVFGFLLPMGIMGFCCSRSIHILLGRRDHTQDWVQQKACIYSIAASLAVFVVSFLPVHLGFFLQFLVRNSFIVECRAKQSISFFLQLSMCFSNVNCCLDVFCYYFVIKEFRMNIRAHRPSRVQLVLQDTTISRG
T1 sequence (Q9HC97 whole entry): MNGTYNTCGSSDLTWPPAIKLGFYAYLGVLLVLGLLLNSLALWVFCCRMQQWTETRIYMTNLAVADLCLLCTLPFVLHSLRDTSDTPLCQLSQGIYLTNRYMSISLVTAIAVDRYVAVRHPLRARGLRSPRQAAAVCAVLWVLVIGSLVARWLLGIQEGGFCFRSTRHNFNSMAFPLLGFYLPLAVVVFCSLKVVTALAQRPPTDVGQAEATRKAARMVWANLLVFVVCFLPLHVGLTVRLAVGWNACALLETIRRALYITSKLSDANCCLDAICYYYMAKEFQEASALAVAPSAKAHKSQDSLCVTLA

Take `CCCCC1(Cc2cccc([N+](=O)[O-])c2)C(=O)N(c2ccccc2)N(c2ccccc2)C1=O`: the EC50 in [1], in [6] and in [8] was > 32 µM (inactive) throughout. For the same compound, the IC50 in assay [2] was 0.552 µM (active); in [3], > 32 µM (inactive); in assay [4], 0.577 µM (active); in assay [5], > 32 µM (inactive); in assay [7] it was 11 µM (inactive).

Turning to `Cc1c(C(=O)Nc2ccc3c(c2)OCCO3)sc2ncnc(O)c12`, in assay [9], the IC50 is > 32 µM (inactive).

As to `Cc1ccc(C(=O)Nc2nnc(CC(=O)N/N=C/c3ccc(O)c(O)c3)s2)cc1`, the EC50 in assay [10] was 66 µM (active); in assay [13], 47.8 µM (active); in [14], 37.2 µM (active). The IC50 was 37.1 µM (active) in [11], 4.81 µM (active) in [12], 1.71 µM (active) in [15] and 46 µM (active) in assay [16].
